Assays:
Ribonuclease T1 = target: T1, Ribonuclease T1 (Aspergillus oryzae, UniProt P00651); experiment: Visual detection ribonuclease assay, cleavage of Substrate ODN by RNase T1; format: biochemical; set-up: key to Sensitivity of Substrate ODN to Ribonuclease T1, relative signal intensity: +++ = maximum intensity; ++ = moderate intensity; + = faint but above background; − = negative (identical to background); conditions: Substrate 500 nM; for Sensitivity of Substrate ODN to Ribonuclease T1, relative signal intensity: visual inspection, UV excitation, 37° C. 60 minutes
T1 sequence (P00651 27-130): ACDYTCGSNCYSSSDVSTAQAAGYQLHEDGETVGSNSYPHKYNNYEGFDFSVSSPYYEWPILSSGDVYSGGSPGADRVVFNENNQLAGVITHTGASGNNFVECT
Method in brief: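 Substrate ODNs at 500 nM in 1× Assay Buffer; RNase T1 serially diluted to final 0.001, 0.0001 and 0.00001 units/ml. After incubation (60 min at 37 °C, or 10 min at room temperature), fluorescence under UV excitation was inspected by eye and scored +++, ++, + or − by relative intensity.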

RNase 1 = RNase 1 (Escherichia coli, UniProt P21338); experiment: Fluorometric detection nuclease assay, RNase 1; format: biochemical, E. coli; conditions: Substrate 50 nM, 37° C. 1 hour
Procedure: (§1) Nuclease assays were conducted using the method of the invention. The Substrate (SEQ ID NO:30) was mixed in 1× Assay Buffer at a concentration of 50 nM (150 pmoles oligonucleotide in 3 mls volume). Test nucleases were added to respective Assay Mixes, including 1 ul of RNase A (1 ug), 1 ul of RNase 1 (100 units), or 1 ul of RNase T1 (1000 units). […] Assays were set up directly in cuvettes as follows:
(§2) Assay Mixes were incubated at 37° C. for 1 hour. Assays were transferred to cuvettes and fluorescence emission at 520 nm was measured using a PTI fluorometer with 490 nm excitation. Substrate SEQ ID NO:30, a preferred Substrate of the invention, reacted with (i.e., detected) all three RNase enzymes, verifying that Substrate compositions of the invention are sensitive to a variety of RNase enzymes.
(§3) Assays were conducted using the method of the invention with fluorometric detection. Substrate SEQ ID NO:30 was mixed in 1× Assay Buffer at a concentration of 50 nM (50 pmoles ODN in 1.0 ml volume) in RNase-free disposable cuvettes. […] Dilutions of stock RNase A, RNase 1, and RNase T1 were made in water. […] Assays were incubated at 37° C. for 1 hour and examined for fluorescence emission at 520 nm using 490 nm excitation in a PTI fluorometer. […]

[1] = test system: RNase A, RNase 1, and RNase T1; experiment: Substrate optimization in ribonuclease assays (visual and fluorometric detection); format: biochemical; conditions: 28 Substrate ODNs compared
Procedure: Nuclease assays were conducted using the method of the invention with both visual and fluorometric detection methods. Substrates were individually mixed in 1× Assay Buffer at a concentration of 50 nM (50 pmoles oligonucleotide in 1 ml volume) for fluorometric detection or at a concentration of 500 nM (50 pmoles of oligonucleotide in 100 ul volume) for visual detection. Test nucleases were added to respective Assay Mixes beginning at 1 ul stock reagent and proceeding with a 1:10 serial dilution until undetectable. Reaction mixes were incubated at 37° C. for 60 minutes. Fluorometric detection was performed as outlined in Example 2. Visual detection was performed as outlined in Example 1.
Different Substrates were examined for reactivity with RNase A, RNase 1, and RNase T1. A Substrate composition that contains all 4 ribonucleotide bases in an optimized sequence might be sensitive to most ribonuclease activities and could function as a stand-alone reagent for the Assay. Alternatively, a mix of Substrates could be used (for example, wherein one Substrate contains adenosine, one contains guanosine, one contains uridine, and one contains cytosine residues). Both possibilities were tested. […] Substrates having different base sequence were compared for sensitivity. […] Sequence dependence for RNase T1 was pronounced with cleavage preference being ‘gg’>‘gc’>‘ga’>‘gu’. […]

RNase T1 = RNase T1 (Aspergillus oryzae, UniProt P00651); experiment: Fluorometric detection nuclease assay, RNase T1; format: biochemical; conditions: Substrate 50 nM, 37° C. 1 hour
Procedure: as §1, §2, §3

Sequence of RNase 1 (P21338 24-268): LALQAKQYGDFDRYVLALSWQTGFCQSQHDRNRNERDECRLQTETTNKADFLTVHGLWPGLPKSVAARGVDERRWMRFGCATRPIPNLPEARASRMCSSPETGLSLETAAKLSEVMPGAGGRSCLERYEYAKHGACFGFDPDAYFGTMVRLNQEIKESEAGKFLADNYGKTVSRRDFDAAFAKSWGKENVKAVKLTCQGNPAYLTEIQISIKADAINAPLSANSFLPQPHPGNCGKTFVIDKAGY

5′ Fluorescein-AauggcA-QSY-7 3′ (NAAUGGCAN; 5' fluorescein and 3' QSY-7 labels, nucleotide chemistry not given here) [SEQ ID NO:30]
Sensitivity of Substrate ODN to Ribonuclease T1, relative signal intensity (Ribonuclease T1; RNase T1 10^−3 units/ml): +++
Sensitivity of Substrate ODN to Ribonuclease T1, relative signal intensity (Ribonuclease T1; RNase T1 10^−4 units/ml): +++
Sensitivity of Substrate ODN to Ribonuclease T1, relative signal intensity (Ribonuclease T1; RNase T1 10^−5 units/ml): +++
Detection of RNase T1 activity by visual examination (Ribonuclease T1; final dilution factors of stock 10^−2 to 10^−7, room temperature 10 minutes): clearly detectable
Reactivity with RNase 1 (fluorometer) (RNase 1; RNase 1 33 units/ml, emission 520 nm, 490 nm excitation): reacted
Enzyme Concentration, lowest tested reproducibly positive with signal:noise at least 2:1, RNase 1 (RNase 1; fluorometric detection, dilution factor 10^−7): 0.00001 units/ml
Relative activity / sensitivity among Substrates tested [1]: most active
Reactivity with RNase T1 (fluorometer) (RNase T1; RNase T1 333 units/ml, emission 520 nm, 490 nm excitation): reacted
Enzyme Concentration, lowest tested reproducibly positive with signal:noise at least 2:1, RNase T1 (RNase T1; fluorometric detection, dilution factor 10^−8): 0.00001 units/ml

Reference: US7276337B2, “Compositions and methods for visual ribonuclease detection assays” (Integrated DNA Technologies, Inc., priority 2000, dated 2007)
